Measurements taken from the NIST ThermoML archive (doi:10.1021/je050484k).
“And” between values parts separate entries of the source, which are not always exact repeats. Equal values may be shown once.

Key:
[1] = for surface tension liquid-gas: Pendant drop shape; for mass density: 101 kPa, Liquid
[2] = xn = mol fraction of the nth substance listed; settings: for surface tension liquid-gas: Pendant drop shape; for mass density: 101 kPa, Liquid

Cc1ccc(C)c(C)c1 [1,2,4-trimethylbenzene]
[1]
Settings	mass density [kg/m3]	surface tension liquid-gas [mN/m]
298.15 K	871.65	29.29
313.15 K	859.54	27.67

Cc1ccc(C)c(C)c1 [1,2,4-trimethylbenzene] + COCCO
[2]
Settings	mass density [kg/m3]	surface tension liquid-gas [mN/m]
298.15 K, x2 = 0	871.65	29.29
298.15 K, x2 = 0.0507	873.14	–
298.15 K, x2 = 0.0976	875.08	29.36
298.15 K, x2 = 0.154	877.75	–
298.15 K, x2 = 0.2031	880.31	29.36
298.15 K, x2 = 0.2556	883.31	–
298.15 K, x2 = 0.3021	886.13	29.35
298.15 K, x2 = 0.3482	889.1	–
298.15 K, x2 = 0.3999	892.67	29.44
298.15 K, x2 = 0.453	896.6	–
298.15 K, x2 = 0.5015	900.39	29.57
298.15 K, x2 = 0.5513	904.61	–
298.15 K, x2 = 0.6035	909.35	29.78
298.15 K, x2 = 0.6526	914.1	–
298.15 K, x2 = 0.7033	919.38	30.03
298.15 K, x2 = 0.7534	924.98	–
298.15 K, x2 = 0.7974	930.26	30.34
298.15 K, x2 = 0.8455	936.54	–
298.15 K, x2 = 0.9014	944.31	30.61
298.15 K, x2 = 0.9507	951.9	–
313.15 K, x2 = 0	859.54	27.67
313.15 K, x2 = 0.0494	860.68	–
313.15 K, x2 = 0.1019	862.75	27.78
313.15 K, x2 = 0.15	864.92	–
313.15 K, x2 = 0.2002	867.4	27.72
313.15 K, x2 = 0.2486	869.95	–
313.15 K, x2 = 0.3004	873	27.72
313.15 K, x2 = 0.3507	876.1	–
313.15 K, x2 = 0.4007	879.45	27.79
313.15 K, x2 = 0.4502	883.02	–
313.15 K, x2 = 0.4991	886.8	27.84
313.15 K, x2 = 0.5513	891.2	–
313.15 K, x2 = 0.6006	895.56	28.03
313.15 K, x2 = 0.653	900.55	–
313.15 K, x2 = 0.7002	905.44	28.29
313.15 K, x2 = 0.7504	910.91	–
313.15 K, x2 = 0.7999	916.79	28.59
313.15 K, x2 = 0.8496	923.25	–
313.15 K, x2 = 0.9007	930.3	28.96
313.15 K, x2 = 0.9504	937.74	–

Cc1ccc(C)c(C)c1 [1,2,4-trimethylbenzene] + COCCOC
[2]
Settings	mass density [kg/m3]	surface tension liquid-gas [mN/m]
298.15 K, x2 = 0	871.65	29.29
298.15 K, x2 = 0.0488	871.13	–
298.15 K, x2 = 0.103	870.57	28.71
298.15 K, x2 = 0.1497	870.09	–
298.15 K, x2 = 0.205	869.53	28.11
298.15 K, x2 = 0.2496	869.07	–
298.15 K, x2 = 0.3006	868.54	27.54
298.15 K, x2 = 0.3515	868.02	–
298.15 K, x2 = 0.398	867.54	26.97
298.15 K, x2 = 0.4492	867.02	–
298.15 K, x2 = 0.5005	866.49	26.43
298.15 K, x2 = 0.5491	865.99	–
298.15 K, x2 = 0.601	865.46	25.9
298.15 K, x2 = 0.649	864.97	–
298.15 K, x2 = 0.6979	864.48	25.42
298.15 K, x2 = 0.7506	863.94	–
298.15 K, x2 = 0.7977	863.46	24.92
298.15 K, x2 = 0.8501	862.93	–
298.15 K, x2 = 0.9018	862.41	24.41
298.15 K, x2 = 0.9463	861.95	–
313.15 K, x2 = 0	859.54	27.67
313.15 K, x2 = 0.0482	858.88	–
313.15 K, x2 = 0.1004	858.17	–
313.15 K, x2 = 0.1019	–	27.02
313.15 K, x2 = 0.1494	857.51	–
313.15 K, x2 = 0.1999	856.82	–
313.15 K, x2 = 0.2002	–	26.43
313.15 K, x2 = 0.2495	856.16	–
313.15 K, x2 = 0.2999	855.48	–
313.15 K, x2 = 0.3004	–	25.85
313.15 K, x2 = 0.353	854.74	–
313.15 K, x2 = 0.4007	–	25.26
313.15 K, x2 = 0.4015	854.06	–
313.15 K, x2 = 0.4557	853.31	–
313.15 K, x2 = 0.4991	–	24.73
313.15 K, x2 = 0.4996	852.68	–
313.15 K, x2 = 0.5499	851.99	–
313.15 K, x2 = 0.5989	851.29	–
313.15 K, x2 = 0.6006	–	24.23
313.15 K, x2 = 0.6513	850.53	–
313.15 K, x2 = 0.7002	–	23.77
313.15 K, x2 = 0.7005	849.81	–
313.15 K, x2 = 0.7508	849.12	–
313.15 K, x2 = 0.7999	–	23.32
313.15 K, x2 = 0.8	848.38	–
313.15 K, x2 = 0.8503	847.65	–
313.15 K, x2 = 0.9007	–	22.94
313.15 K, x2 = 0.9008	846.87	–
313.15 K, x2 = 0.9493	846.16	–

COCCOC [1,2-dimethoxyethane]
[1]
Settings	mass density	surface tension liquid-gas [mN/m]
298.15 K	861.38 kg/m3	23.93
313.15 K	845.31 kg/m3 and 845.28 kg/m3	22.51

COCCOC [1,2-dimethoxyethane] + Cc1cc(C)cc(C)c1
[2]
Settings	mass density [kg/m3]	surface tension liquid-gas [mN/m]
298.15 K, x1 = 0.0487	860.76	–
298.15 K, x1 = 0.0997	860.5	27.6
298.15 K, x1 = 0.1518	860.24	–
298.15 K, x1 = 0.201	860.03	27.07
298.15 K, x1 = 0.2499	859.85	–
298.15 K, x1 = 0.2978	859.68	26.59
298.15 K, x1 = 0.3484	859.56	–
298.15 K, x1 = 0.3973	859.41	26.14
298.15 K, x1 = 0.451	859.35	–
298.15 K, x1 = 0.4991	859.29	25.71
298.15 K, x1 = 0.5498	859.31	–
298.15 K, x1 = 0.5977	859.3	25.35
298.15 K, x1 = 0.6494	859.42	–
298.15 K, x1 = 0.7011	859.52	25
298.15 K, x1 = 0.7499	859.69	–
298.15 K, x1 = 0.7999	859.91	24.67
298.15 K, x1 = 0.8474	860.25	–
298.15 K, x1 = 0.9008	860.54	24.3
298.15 K, x1 = 0.9484	860.95	–
298.15 K, x1 = 1	861.38	23.93
313.15 K, x1 = 0.0504	848.29	–
313.15 K, x1 = 0.0988	847.89	26.2
313.15 K, x1 = 0.1505	847.48	–
313.15 K, x1 = 0.1996	847.11	25.69
313.15 K, x1 = 0.2474	846.78	–
313.15 K, x1 = 0.3	846.42	25.17
313.15 K, x1 = 0.3495	846.14	–
313.15 K, x1 = 0.4	845.85	24.69
313.15 K, x1 = 0.4498	845.61	–
313.15 K, x1 = 0.5002	845.34	24.24
313.15 K, x1 = 0.5502	845.18	–
313.15 K, x1 = 0.5998	845	23.84
313.15 K, x1 = 0.6509	844.85	–
313.15 K, x1 = 0.6989	844.79	23.49
313.15 K, x1 = 0.7494	844.74	–
313.15 K, x1 = 0.8	844.75	23.17
313.15 K, x1 = 0.8505	844.8	–
313.15 K, x1 = 0.8991	844.92	22.84
313.15 K, x1 = 0.9502	845.1	–
313.15 K, x1 = 1	845.28	22.51

COCCOC [1,2-dimethoxyethane] + Cc1ccc(C)c(C)c1
[2], x1 = 1
Settings	mass density [kg/m3]	surface tension liquid-gas [mN/m]
298.15 K	861.38	23.93
313.15 K	845.31	22.51

Cc1cc(C)cc(C)c1 [1,3,5-trimethylbenzene]
[1]
Settings	mass density [kg/m3]	surface tension liquid-gas [mN/m]
298.15 K	861.05	28.09
313.15 K	848.74	26.82

Cc1cc(C)cc(C)c1 [1,3,5-trimethylbenzene] + COCCO
[2]
Settings	mass density [kg/m3]	surface tension liquid-gas [mN/m]
298.15 K, x2 = 0	861.05	28.09
298.15 K, x2 = 0.0486	862.67	–
298.15 K, x2 = 0.0993	865.02	28.19
298.15 K, x2 = 0.1546	867.91	–
298.15 K, x2 = 0.2021	870.67	28.23
298.15 K, x2 = 0.2469	873.41	–
298.15 K, x2 = 0.3015	877.06	28.34
298.15 K, x2 = 0.3469	880.3	–
298.15 K, x2 = 0.4011	884.41	28.51
298.15 K, x2 = 0.45	888.41	–
298.15 K, x2 = 0.501	892.85	28.73
298.15 K, x2 = 0.5508	897.5	–
298.15 K, x2 = 0.6004	902.45	29.03
298.15 K, x2 = 0.6509	907.91	–
298.15 K, x2 = 0.7003	913.59	29.35
298.15 K, x2 = 0.7483	919.54	–
298.15 K, x2 = 0.8008	926.64	29.72
298.15 K, x2 = 0.8501	933.84	–
298.15 K, x2 = 0.9001	941.83	30.2
298.15 K, x2 = 0.9502	950.56	–
313.15 K, x2 = 0	848.74	26.82
313.15 K, x2 = 0.0518	850.28	–
313.15 K, x2 = 0.0979	852.21	26.93
313.15 K, x2 = 0.1489	854.71	–
313.15 K, x2 = 0.198	857.38	26.91
313.15 K, x2 = 0.2497	860.47	–
313.15 K, x2 = 0.3009	863.78	26.97
313.15 K, x2 = 0.349	867.13	–
313.15 K, x2 = 0.3988	870.82	27.02
313.15 K, x2 = 0.4527	875.14	–
313.15 K, x2 = 0.5005	879.25	27.13
313.15 K, x2 = 0.5497	883.79	–
313.15 K, x2 = 0.6003	888.79	27.36
313.15 K, x2 = 0.6491	893.96	–
313.15 K, x2 = 0.6995	899.77	27.67
313.15 K, x2 = 0.7498	906.04	–
313.15 K, x2 = 0.8001	912.79	28.01
313.15 K, x2 = 0.8374	918.17	–
313.15 K, x2 = 0.9006	928.15	28.55
313.15 K, x2 = 0.9491	936.64	–

Cc1cc(C)cc(C)c1 [1,3,5-trimethylbenzene] + COCCOC
[2], x2 = 0
Settings	mass density [kg/m3]	surface tension liquid-gas [mN/m]
298.15 K	861.05	28.09
313.15 K	848.74	26.82

COCCO [2-methoxyethan-1-ol]
[1]
Settings	mass density [kg/m3]	surface tension liquid-gas [mN/m]
298.15 K	960.02	30.88
313.15 K	946.17	29.42

COCCO [2-methoxyethan-1-ol] + Cc1cc(C)cc(C)c1
[2], x1 = 1
Settings	mass density [kg/m3]	surface tension liquid-gas [mN/m]
298.15 K	960.02	30.88
313.15 K	946.17	29.42

COCCO [2-methoxyethan-1-ol] + Cc1ccc(C)c(C)c1
[2], x1 = 1
Settings	mass density [kg/m3]	surface tension liquid-gas [mN/m]
298.15 K	960.02	30.88
313.15 K	946.17	29.42
